pEC50: −log10 of the molar value. Square brackets hold non-standard residues; d marks the D form. Side chains are listed from the residue outwards. Peptide text beside a SMILES is read from it. * marks the point of attachment. C18 diacid = O=C(O)CCCCCCCCCCCCCCCCC(=O)*; NMeY = CN[C@@H](Cc1ccc(O)cc1)C(=O)O; Palmitoyl = CCCCCCCCCCCCCCCC(=O)*; αMeF = C[C@](N)(Cc1ccccc1)C(=O)O; Iva = CC[C@](C)(N)C(=O)O; Aib = CC(C)(N)C(=O)O
Columns and labels:
male C57BL/6J mouse = assay: Evaluation of feeding suppressive action in mice; format: in vivo; conditions: 30 nmol/kg s.c. once a day for 3 days; 3-days cumulative food consumption vs solvent control
Experimental: The feeding suppressive activity of a test compound was examined by the method described below.
The test compound was dissolved at a concentration of 30 or 100 nmol/2 mL in a solvent (10% DMSO-containing physiological saline). The test compound solution was subcutaneously administered at a dose of 2 mL/kg to the back of each male C57BL/6J mouse at 8-9 weeks of age (20-26° C., allowed to take food and water ad libitum; raised in the 12-hour bright-12-hour dark cycle). The administration was performed once a day for 3 days. After the administration, the mouse was individually raised in a rearing cage, and given previously weighed food; food consumption for 3 days after the start of administration was measured. The food consumption was calculated by subtracting the amount of remaining food from the weight of the food given on the day of the start of administration. When the food consumption of a control group receiving administration of the solvent alone was regarded as a suppression rate of 0%, the feeding suppressive activity of each test compound was evaluated on the basis of 3-days cumulative food consumption after the start of administration. The food intake suppression rate (%) of the test compound was defined as (Food consumption of the control group−Food consumption of the test compound-administered group)/Food consumption of the control group×100.

human GIPR = target: T1, human GIPR (Homo sapiens, UniProt P48546); assay: Reporter assay of human GIPR gene (agonist activity, intracellular cAMP as index); format: cell-based; conditions: Cre-luc reporter, hGIPR/CHO-K1 cells, 4 hours
T1 construct: expressed in transfected cells; host or cells: CHO-K1 Cre-luc reporter cells (hGIPR/CHO-K1, also called hGIPR/CRE-LUC/CHO-K1)
T1 sequence (P48546 22-466): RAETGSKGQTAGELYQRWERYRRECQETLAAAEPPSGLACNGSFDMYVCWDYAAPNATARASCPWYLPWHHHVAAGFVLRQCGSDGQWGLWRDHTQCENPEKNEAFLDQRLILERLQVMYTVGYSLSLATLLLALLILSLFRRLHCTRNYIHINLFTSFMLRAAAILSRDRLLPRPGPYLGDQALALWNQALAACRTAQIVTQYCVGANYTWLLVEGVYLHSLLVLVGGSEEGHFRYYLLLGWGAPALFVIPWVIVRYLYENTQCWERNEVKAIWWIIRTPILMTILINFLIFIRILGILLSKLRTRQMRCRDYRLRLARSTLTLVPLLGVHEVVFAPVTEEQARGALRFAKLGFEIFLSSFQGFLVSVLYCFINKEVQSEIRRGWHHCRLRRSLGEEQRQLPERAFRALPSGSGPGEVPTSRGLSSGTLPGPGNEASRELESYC
Source text: Evaluation of Agonist Activity Against Human NPY2R, Human GIPR, and Human GLP-1R Using Change in Intracellular cAMP Concentration as Index
The human GIPR gene having a sequence identical to the sequence of GenBank Accession No. U39231 was cloned into pMSRα-neo vector to prepare hGIPR/pMSRα-neo. This vector was introduced to the Cre-luc reporter cells obtained in (1) to obtain transformants. Next, a cell line induced to express luciferase, i.e., hGIPR/CHO-K1 cells, were selected from the obtained transformants by the addition of GIP.
The hGIPR/CRE-LUC/CHO-K1 cells or the hGLP-1R/Crel cells were inoculated at a cell density of 25 μL/well (5,000 cells/well) to a 384-well white plate (Corning, 3570), and cultured overnight in Ham F12 medium containing 10% fetal bovine serum, 100 U/mL penicillin and 100 μg/mL streptomycin in a CO2 incubator of 37° C. On the next day, a medium containing a test compound was added at a concentration of 5 μL/well to the cells, and the resultant cells were incubated for 4 hours in a CO2 incubator of 37° C. to give the final concentration of 1 μM. SteadyGlo (Promega) was added thereto at a concentration of 30 μL/well, and the mixture was shaken with light shielded. After 30 minutes, the luciferase activity was measured using a plate reader Envision (PerkinElmer). For the GIPR agonist activity, the luciferase activity in the presence of 10 μM GIP was defined as 100%, and the luciferase activity from the addition of DMSO instead of the test compound was defined as 0%. The GIPR agonist activity was calculated with a rise in intracellular cAMP concentration as an index.

Compound: CCCCCCCCCCCCCCCC(=O)NCC(=O)NCC(=O)NCC(=O)NCC(=O)NCCCC[C@H](NC(=O)[C@H](CC(=O)O)NC(=O)[C@H](CO)NC(=O)[C@@H](NC(=O)[C@](C)(Cc1ccccc1)NC(=O)[C@@H](NC(=O)CNC(=O)[C@H](CCC(=O)O)NC(=O)C(C)(C)NC(=O)[C@@H](N)Cc1ccc(O)cc1)[C@@H](C)O)[C@@H](C)O)C(=O)NC(C)(C)C(=O)N[C@H](C(=O)NC(C)(C)C(=O)N[C@@H](CC(C)C)C(=O)N[C@@H](CC(=O)O)C(=O)N[C@@H](CCCCN)C(=O)N[C@@H](CCC(N)=O)C(=O)N[C@@H](C)C(=O)N[C@@H](CCC(N)=O)C(=O)N[C@@](C)(CC)C(=O)N[C@@H](CCC(=O)O)C(=O)N[C@@H](Cc1ccccc1)C(=O)N[C@H](C(=O)N[C@@H](CCCNC(=N)N)C(=O)N[C@@H](Cc1c[nH]cn1)C(=O)N[C@@H](CC(C)C)C(=O)N[C@@H](CC(C)C)C(=O)N[C@@H](CC(N)=O)C(=O)N[C@@H](CCCCN)C(=O)NC(C)(C)C(=O)N[C@H](C(=O)N[C@@H](CCCNC(=N)N)C(=O)N[C@@H](CCC(N)=O)C(=O)N[C@@H](CCCNC(=N)N)C(=O)N[C@@H](Cc1ccc(O)cc1)C(N)=O)[C@@H](C)O)C(C)C)[C@@H](C)CC [Example 27] (H-Y[Aib]EGT[αMeF]TSDK([Gly-Gly-Gly-Gly-Palmitoyl])[Aib]I[Aib]LDKQAQ[Iva]EFVRHLLNK[Aib]TRQRY-NH2)
- Rate of feeding suppression (%) (male C57BL/6J mouse): −41.6%
- pEC50 (human GIPR): 10.39

Compound: CCCCCCCCCCCCCCCC(=O)NCC(=O)NCC(=O)NCC(=O)NCC(=O)NCCCC[C@H](NC(=O)[C@H](CC(=O)O)NC(=O)[C@H](CO)NC(=O)[C@@H](NC(=O)[C@](C)(Cc1ccccc1)NC(=O)[C@@H](NC(=O)CNC(=O)[C@H](CCC(=O)O)NC(=O)C(C)(C)NC(=O)[C@@H](N)Cc1ccc(O)cc1)[C@@H](C)O)[C@@H](C)O)C(=O)N[C@@H](CO)C(=O)N[C@H](C(=O)NC(C)(C)C(=O)N[C@@H](CC(C)C)C(=O)N[C@@H](CCC(=O)O)C(=O)N[C@@H](CCCCN)C(=O)N[C@@H](CCC(N)=O)C(=O)N[C@@H](CCCNC(=N)N)C(=O)N[C@@H](CCC(N)=O)C(=O)N[C@@](C)(CC)C(=O)N[C@@H](CCC(=O)O)C(=O)N[C@@H](Cc1ccccc1)C(=O)N[C@H](C(=O)N[C@@H](CCCNC(=N)N)C(=O)N[C@@H](Cc1c[nH]cn1)C(=O)N[C@@H](CC(C)C)C(=O)N[C@@H](CC(C)C)C(=O)N[C@@H](CC(N)=O)C(=O)N[C@@H](CCCCN)C(=O)NC(C)(C)C(=O)N[C@H](C(=O)N[C@@H](CCCNC(=N)N)C(=O)N[C@@H](CCC(N)=O)C(=O)N[C@@H](CCCNC(=N)N)C(=O)N[C@@H](Cc1ccc(O)cc1)C(N)=O)[C@@H](C)O)C(C)C)[C@@H](C)CC [Example 39] (H-Y[Aib]EGT[αMeF]TSDK([Gly-Gly-Gly-Gly-Palmitoyl])SI[Aib]LEKQRQ[Iva]EFVRHLLNK[Aib]TRQRY-NH2)
- Rate of feeding suppression (%) (male C57BL/6J mouse): −49.6%
- pEC50 (human GIPR): 10.39

Compound: CC[C@H](C)[C@H](NC(=O)C(C)(C)NC(=O)[C@H](CCCCNC(=O)CNC(=O)CNC(=O)CNC(=O)CNC(=O)CCCCCCCCCCCCCCCCC(=O)O)NC(=O)[C@H](CC(=O)O)NC(=O)[C@H](CO)NC(=O)[C@@H](NC(=O)[C@](C)(Cc1ccccc1)NC(=O)[C@@H](NC(=O)CNC(=O)[C@H](CCC(=O)O)NC(=O)C(C)(C)NC(=O)[C@H](Cc1ccc(O)cc1)NC)[C@@H](C)O)[C@@H](C)O)C(=O)NC(C)(C)C(=O)N[C@@H](CC(C)C)C(=O)N[C@@H](CC(=O)O)C(=O)N[C@@H](CCCCN)C(=O)N[C@@H](CCC(N)=O)C(=O)N[C@@H](C)C(=O)N[C@@H](CCC(N)=O)C(=O)N[C@@](C)(CC)C(=O)N[C@@H](CCC(=O)O)C(=O)N[C@@H](Cc1ccccc1)C(=O)N[C@H](C(=O)N[C@@H](CCCNC(=N)N)C(=O)N[C@@H](Cc1c[nH]cn1)C(=O)N[C@@H](CC(C)C)C(=O)N[C@@H](CC(C)C)C(=O)N[C@@H](CC(N)=O)C(=O)N[C@@H](CCCCN)C(=O)NC(C)(C)C(=O)N[C@H](C(=O)N[C@@H](CCCNC(=N)N)C(=O)N[C@@H](CCC(N)=O)C(=O)N[C@@H](CCCNC(=N)N)C(=O)N[C@@H](Cc1ccc(O)cc1)C(N)=O)[C@@H](C)O)C(C)C [Example 30] (H-[NMeY][Aib]EGT[αMeF]TSDK([Gly-Gly-Gly-Gly-C18 diacid])[Aib]I[Aib]LDKQAQ[Iva]EFVRHLLNK[Aib]TRQRY-NH2)
- pEC50 (human GIPR): 10.13
